# System: HBsAg in HepG2.2.15 cells
# Assay: HBsAg assay: inhibition of HBsAg in HepG2.2.15 cells (chemiluminescence immunoassay of supernatant)
# Assay type: cell-based, hepatitis B virus
# Conditions: Hepatitis B virus, HepG2.2.15, 144 h, read-out: sAg EC50, HepG2.2.15 cells, supernatant collected at day 6 after exposure, HBsAg CLIA
# Procedure: Inhibition of HBsAg was determined in HepG2.2.15 cells. Cells were maintained in culture medium containing 10% fetal calf serum, […], Glutamine, penicillin/streptomycin. Cells were seeded in 96-well collagen-coated plate at a density of 30,000 cells/well. Serially diluted compounds were added to cells next day at the final DMSO concentration of 0.5%. Cells were incubated with compounds for 2-3 days, after which medium was removed. Fresh medium containing compounds was added to cells for additional 3-4 days. At day 6 after exposure of compounds, supernatant was collected, the HBsAg immunoassay (microplate-based chemiluminescence immunoassay kits, CLIA, Autobio Diagnosics Co., Zhengzhou, China, Catalog #CL0310-2) was used to determine the level of HBsAg according to manufactory instruction. Dose-response curves were generated and the EC50 value (effective concentrations that achieved 50% inhibitory effect) were determined using XLfit software. In addition, cells were seeded at a density of 5,000 cells/well for determination of cell viability in the presence and absence of compounds by using CellTiter-Glo reagent (Promega).
row,Compound,EC50
1,"CCC1c2cc(F)c(OC)cc2CN1c1cnc(C(=O)O)nc1 (stereo not drawn) [Example 98, 5-(1-Ethyl-6-fluoro-5-methoxyisoindolin-2-yl)pyrimidine-2-carboxylic Acid]",240 nM
2,"CCC1c2ccc(F)c(OC)c2CCN1c1ccnc(-c2ncccn2)n1 (stereo not drawn) [Example 46, 1-Ethyl-6-fluoro-5-methoxy-2-(2-pyrimidin-2-ylpyrimidin-4-yl)-3,4-dihydro-1H-isoquinoline]",130 nM
3,"c1cnc(-c2nccc(N3CC4CCC3c3ccccc34)n2)nc1 (stereo not drawn) [Example 79, 10-([2,2′-Bipyrimidin]-4-yl)-1,2,3,4-tetrahydro-1,4-(epiminomethano)naphthalene]",6000 nM
4,"CCC1c2cc(F)c(OC)cc2CCN1c1ccnc(-c2ncccn2)n1 (stereo not drawn) [Example 127, 2-(2,2′-Bipyrimidin-4-yl)-1-ethyl-7-fluoro-6-methoxy-1,2,3,4-tetrahydroisoquinoline]",20 nM
5,"CCC1c2ccc(F)c(F)c2CCN1c1cc(=O)c(C(=O)O)c[nH]1 (stereo not drawn) [Example 112, 6-(1-Ethyl-5,6-difluoro-3,4-dihydro-1H-isoquinolin-2-yl)-4-hydroxy-pyridine-3-carboxylic Acid]",11000 nM
6,"COc1cc2c(cc1OC)C(CC(=O)O)N(c1cnc(-c3ncccn3)nc1)CC2 (stereo not drawn) [Example 27, 2-(2-([2,2′-Bipyrimidin]-5-yl)-6,7-dimethoxy-1,2,3,4-tetrahydroisoquinolin-1-yl) acetic Acid]",28000 nM
7,"CC1c2ccccc2CCN1c1cnc(-c2ncccn2)nc1 (stereo not drawn) [Example 6, 1-Methyl-2-(2-pyrimidin-2-ylpyrimidin-5-yl)-3,4-dihydro-1H-isoquinoline]",1400 nM
8,"CCC1c2cc(OC)c(F)cc2CN1c1ccnc(-c2ncccn2)n1 (single isomer, unassigned) [Example 77, 2-([2,2′-Bipyrimidin]-4-yl)-1-ethyl-5-fluoro-6-methoxyisoindoline]",110 nM
9,"Fc1ccc2c(c1F)CCN(c1ccnc(-c3ncccn3)n1)C2 [Example 4, 2-([2,2′-Bipyrimidin]-4-yl)-5,6-difluoro-1,2,3,4-tetrahydroisoquinoline]",900 nM
10,"c1cnc(-c2ncc(N3CC4CC3c3ccccc34)cn2)nc1 (stereo not drawn) [Example 21, 2-([2,2′-Bipyrimidin]-5-yl)-1,2,3,4-tetrahydro-1,4-methanoisoquinoline]",27000 nM
11,"COc1cc2c(cc1OC)C1CCC2N1c1nc(-c2ncccn2)ncc1C [Example 88, 6,7-Dimethoxy-9-(5-methyl-[2,2′-bipyrimidin]-4-yl)-1,2,3,4-tetrahydro-1,4-epiminonaphthalene]",2000 nM
12,"CCC1c2ccc(F)c(F)c2OCCN1c1ccnc(-c2ncccn2)n1 (stereo not drawn) [Example 126, 5-Ethyl-8,9-difluoro-4-(2-pyrimidin-2-ylpyrimidin-4-yl)-3,5-dihydro-2H-1,4-benzoxazepine]",28000 nM
13,"CCC1c2cc(F)c(OC)cc2CCCN1c1ccnc(-c2ncccn2)n1 (stereo not drawn) [Example 135, 2-([2,2′-Bipyrimidin]-4-yl)-1-ethyl-8-fluoro-7-methoxy-2,3,4,5-tetrahydro-1H-benzo[c]azepine]",1000 nM
14,"COc1cc2c(cc1OC)C1CCC2N1c1cnc(-c2ncccn2)nc1 [Example 84, 9-([2,2′-Bipyrimidin]-5-yl)-6,7-dimethoxy-1,2,3,4-tetrahydro-1,4-epiminonaphthalene]",4000 nM
15,"Fc1cc2c(cc1F)CN(c1ccnc(-c3ncccn3)n1)CC2 [Example 17, 2-([2,2′-Bipyrimidin]-4-yl)-6,7-difluoro-1,2,3,4-tetrahydroisoquinoline]",610 nM
16,"CCC1c2ccccc2CN1c1cnc(-c2ncccn2)nc1 (stereo not drawn) [Example 19, 2-([2,2′-Bipyrimidin]-5-yl)-1-ethylisoindoline]",800 nM
17,"CC1c2ccc(F)c(F)c2CCN1c1cnc(-c2ncccn2)nc1 (stereo not drawn) [Example 24, 2-([2,2′-Bipyrimidin]-5-yl)-5,6-difluoro-1-methyl-1,2,3,4-tetrahydroisoquinoline]",340 nM
18,"CCC1c2cc(OC)c(OC)cc2CN1c1nc(-c2ncccn2)ncc1C1CC1 (stereo not drawn) [Example 61, 2-(5-Cyclopropyl-[2,2′-bipyrimidin]-4-yl)-1-ethyl-5,6-dimethoxyisoindoline]",14 nM
19,"CCC1c2cc(F)c(OC)cc2CN1c1ccnc(-c2ncccn2)n1 (stereo not drawn) [Example 63, 2-([2,2′-Bipyrimidin]-4-yl)-1-ethyl-6-fluoro-5-methoxyisoindoline]",21 nM
20,"CCC1c2cc(F)c(OC)cc2CN1c1cnc(C(=O)NS(C)(=O)=O)nc1 (single isomer, unassigned) [Example 102, 5-(1-Ethyl-6-fluoro-5-methoxyisoindolin-2-yl)-N-(methylsulfonyl)pyrimidine-2-carboxamide]",620 nM
21,"CC1CN(c2ccnc(-c3ncccn3)n2)Cc2ccccc21 (stereo not drawn) [Example 15, 2-([2,2′-Bipyrimidin]-4-yl)-4-methyl-1,2,3,4-tetrahydroisoquinoline]",1100 nM
22,"CC1c2ccccc2CCN1c1ccnc(-c2ncccn2)n1 (stereo not drawn) [Example 7, 2-([2,2′-Bipyrimidin]-4-yl)-1-methyl-1,2,3,4-tetrahydroisoquinoline]",1900 nM
23,"CC1CN(c2cnc(-c3ncccn3)nc2)C(=O)c2ccccc21 (stereo not drawn) [Example 16, 2-([2,2′-Bipyrimidin]-5 yl)-4-methyl-3,4-dihydroisoquinolin-1(2H)-one]",9100 nM
24,"c1cnc(-c2nccc(N3CC4CC3c3ccccc34)n2)nc1 (stereo not drawn) [Example 83, 2-([2,2′-Bipyrimidin]-4-yl)-1,2,3,4-tetrahydro-1,4-methanoisoquinoline]",5000 nM
25,"CCC1c2cc(OC)c(F)cc2CN1c1ccnc(-c2ncccn2)n1 (stereo not drawn) [Example 76, 2-([2,2′-Bipyrimidin]-4-yl)-1-ethyl-5-fluoro-6-methoxyisoindoline]",120 nM
26,"CCC1c2cc(OC)c(F)c(F)c2CCN1c1cnc(-c2ncccn2)nc1 (stereo not drawn) [Example 29, 1-Ethyl-5,6-difluoro-7-methoxy-2-(2-pyrimidin-2-ylpyrimidin-5-yl)-3,4-dihydro-1H-isoquinoline]",170 nM

# Same assay, conditions: read-out: sAg EC50; HepG2.2.15 cells, supernatant collected at day 6 after exposure, HBsAg CLIA
row,Compound,EC50
1,"CCCC1c2ccc(F)c(F)c2CCN1c1ccnc(-c2ncccn2)n1 (single isomer, unassigned) [Example 130, 2-([2,2′-Bipyrimidin]-4-yl)-5,6-difluoro-1-propyl-1,2,3,4-tetrahydroisoquinoline]",97 nM
2,"CCC1c2cc(F)c(OC)cc2CCN1c1cnc(C(=O)O)nc1 (single isomer, unassigned) [Example 115, 5-(1-Ethyl-7-fluoro-6-methoxy-3,4-dihydro-1H-isoquinolin-2-yl)pyrimidine-2-carboxylic Acid]",6000 nM
3,"CC1c2ccc(F)c(F)c2CCN1c1ccnc(-c2ncccn2)n1 (single isomer, unassigned) [Example 38, 2-([2,2′-Bipyrimidin]-4-yl)-5,6-difluoro-1-methyl-1,2,3,4-tetrahydroisoquinoline]",1400 nM
4,"CCC1c2cc(F)c(F)cc2CN1c1cnc(C(=O)O)nc1 (single isomer, unassigned) [Example 117, 5-(1-Ethyl-5,6-difluoroisoindolin-2-yl)pyrimidine-2-carboxylic Acid]",15000 nM
5,"CCC1c2ccc(F)c(F)c2CCN1c1cnc(-c2ncccn2)nc1 (single isomer, unassigned) [Example 34, 1-Ethyl-5,6-difluoro-2-(2-pyrimidin-2-ylpyrimidin-5-yl)-3,4-dihydro-1H-isoquinoline]",160 nM
6,"CCC1c2cc(F)c(OC)cc2CN1c1nc(-c2ncccn2)ncc1OC (single isomer, unassigned) [Example 74, 1-Ethyl-6-fluoro-5-methoxy-2-(5-methoxy-[2,2′-bipyrimidin]-4-yl)isoindoline]",8 nM
7,"CCC1c2cc(OC)c(OC)cc2CN1c1ccnc(-c2ncccn2)n1 (single isomer, unassigned) [Example 56, 2-([2,2′-Bipyrimidin]-4-yl)-1-ethyl-5,6-dimethoxyisoindoline]",12 nM
8,"CCC1c2cc(F)c(OC)cc2CN1c1nc(-c2ncccn2)ncc1-c1ccccc1 (single isomer, unassigned) [Example 67, 1-Ethyl-6-fluoro-5-methoxy-2-(5-phenyl-[2,2′-bipyrimidin]-4-yl)isoindoline]",18000 nM
9,"CCC1c2cc(F)c(F)cc2CN1c1cnc(C(=O)O)nc1 (single isomer, unassigned) [Example 116, 5-(1-Ethyl-5,6-difluoroisoindolin-2-yl)pyrimidine-2-carboxylic Acid]",3000 nM
10,"CCCC1c2ccc(F)c(F)c2CCN1c1ccnc(-c2ncccn2)n1 (single isomer, unassigned) [Example 131, 2-([2,2′-Bipyrimidin]-4-yl)-5,6-difluoro-1-propyl-1,2,3,4-tetrahydroisoquinoline]",2000 nM
11,"CCC1c2cc(F)c(OC)cc2CN1c1nc(-c2ncccn2)ncc1F (single isomer, unassigned) [Example 71, 1-Ethyl-6-fluoro-2-(5-fluoro-[2,2′-bipyrimidin]-4-yl)-5-methoxyisoindoline]",3 nM
12,"CCC1c2cc(F)c(OC)cc2CN1c1ccnc(-c2ncccn2)n1 (single isomer, unassigned) [Example 64, 2-([2,2′-Bipyrimidin]-4-yl)-1-ethyl-6-fluoro-5-methoxyisoindoline]",12 nM
13,"CCC1c2cc(F)c(F)cc2CN1c1ccnc(-c2ncccn2)n1 (single isomer, unassigned) [Example 50, 2-([2,2′-Bipyrimidin]-4-yl)-1-ethyl-5,6-difluoroisoindoline]",400 nM

# Source: patent publication US20210251991A1, “SUBSTITUTED 2,2'-BIPYRIMIDINYL COMPOUNDS, ANALOGUES THEREOF, AND METHODS USING SAME” (priority 2018, published 2021)
